The values below come from BindingDB's records for doi:10.1021/jm00053a022 (University of Paris, 1993).

Non-standard residues stand in square brackets, D forms with d. Residues, ends and D or L forms follow the SMILES beside them. *: point of attachment. NMeW = CN[C@@H](Cc1c[nH]c2ccccc12)C(=O)O; 1Nal = N[C@@H](Cc1cccc2ccccc12)C(=O)O; Chg = N[C@H](C(=O)O)C1CCCCC1; Phg = N[C@H](C(=O)O)c1ccccc1; OtBu = CC(C)(C)O*

Assay [1] addresses Gastrin/cholecystokinin type B receptor (Cavia porcellus). The assay can be described thus: Displacement of [3H]pCCK-8 from cholecystokinin type B receptor in guinea pig brain membrane. (In general: Displacement assays read how much labelled ligand stays bound in the presence of the test substance.)
Assay [2] has the same target. The assay is described as above. The source holds these as a separate data set.

Usually Ki stands for the dissociation constant of the complex between target and ligand, obtained from inhibition or displacement. Low values mean a stronger hold on the target, high ones a looser hold on the target.

With `CN(C(=O)[C@@H](NC(=O)[C@H](CC(=O)O)NC(=O)[C@@H](N)Cc1cccc2ccccc12)C1CCCCC1)[C@@H](Cc1c[nH]c2ccccc12)C(=O)OC(C)(C)C` [3-(2-Amino-3-naphthalen-1-yl-propionylamino)-N-({[1-tert-butoxycarbonyl-2-(1H-indol-3-yl)-ethyl]-methyl-carbamoyl}-cyclohexyl-methyl)-succinamic acid] (H-[1Nal]D[Chg][NMeW]-OtBu), affinity in assay [1] was put at a Ki of 140 nM.
On the same count and under the same terms, for `CN(C(=O)[C@@H](NC(=O)[C@H](CC(=O)O)NC(=O)[C@@H](N)Cc1cccc2ccccc12)c1ccccc1)[C@@H](Cc1c[nH]c2ccccc12)C(=O)OC(C)(C)C` [3-(2-Amino-3-naphthalen-1-yl-propionylamino)-N-({[1-tert-butoxycarbonyl-2-(1H-indol-3-yl)-ethyl]-methyl-carbamoyl}-phenyl-methyl)-succinamic acid] (H-[1Nal]D[Phg][NMeW]-OtBu) the value was 170 nM.
Same read-out and setting: for `CC(C)(C)OC(=O)[C@H](Cc1c[nH]c2ccccc12)NC(=O)[C@H](Cc1ccccc1)NC(=O)[C@H](CC(=O)O)NC(=O)[C@@H](N)Cc1cccc2ccccc12` [3-(2-Amino-3-naphthalen-1-yl-propionylamino)-N-{1-[1-tert-butoxycarbonyl-2-(1H-indol-3-yl)-ethylcarbamoyl]-2-phenyl-ethyl}-succinamic acid] (H-[1Nal]DFW-OtBu) the value was 71 nM.
With `CCCC[C@H](NC(=O)[C@H](CC(=O)O)NC(=O)[C@@H](N)Cc1ccccc1)C(=O)N[C@H](Cc1c[nH]c2ccccc12)C(=O)OC(C)(C)C` [3-(2-Amino-3-phenyl-propionylamino)-N-{1-[1-tert-butoxycarbonyl-2-(1H-indol-3-yl)-ethylcarbamoyl]-pentyl}-succinamic acid], the Ki in assay [2] and in assay [1] was 160 nM in each case.
`CCCC[C@H](NC(=O)[C@H](CC(=O)O)NC(=O)[C@H](Cc1cccc2ccccc12)N(C)C)C(=O)N(C)[C@@H](Cc1c[nH]c2ccccc12)C(=O)OC(C)(C)C` [N-(1-{[1-tert-Butoxycarbonyl-2-(1H-indol-3-yl)-ethyl]-methyl-carbamoyl}-pentyl)-3-(2-dimethylamino-3-naphthalen-1-yl-propionylamino)-succinamic acid] gave a Ki in assay [1] of 81 nM. In other words, the double-digit nanomolar range.
`CN(C)[C@@H](Cc1cccc2ccccc12)C(=O)N[C@@H](CC(=O)O)C(=O)N[C@H](C(=O)N[C@@H](Cc1c[nH]c2ccccc12)C(=O)OC(C)(C)C)C1CCCCC1` [N-{[1-tert-Butoxycarbonyl-2-(1H-indol-3-yl)-ethylcarbamoyl]-cyclohexyl-methyl}-3-(2-dimethylamino-3-naphthalen-1-yl-propionylamino)-succinamic acid] displayed a Ki in assay [1] of 74 nM. The Ki values of the last two compounds are within 1.5-fold of each other.
The same measure, in the same setting: in the case of `CN(C)[C@@H](Cc1cccc2ccccc12)C(=O)N[C@@H](CC(=O)O)C(=O)N[C@H](C(=O)N[C@@H](Cc1c[nH]c2ccccc12)C(=O)OC(C)(C)C)c1ccccc1` [N-{[1-tert-Butoxycarbonyl-2-(1H-indol-3-yl)-ethylcarbamoyl]-phenyl-methyl}-3-(2-dimethylamino-3-naphthalen-1-yl-propionylamino)-succinamic acid] it was 39 nM.
